Target: T1, human ICE (Homo sapiens, UniProt P29466)
T1 sequence (P29466 120-297 limits assumed): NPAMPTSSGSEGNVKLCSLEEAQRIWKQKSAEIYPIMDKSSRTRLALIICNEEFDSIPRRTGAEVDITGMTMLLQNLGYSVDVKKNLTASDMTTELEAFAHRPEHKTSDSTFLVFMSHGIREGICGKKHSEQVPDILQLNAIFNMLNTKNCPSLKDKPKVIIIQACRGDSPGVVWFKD
T1 sequence (P29466 317-404 limits assumed): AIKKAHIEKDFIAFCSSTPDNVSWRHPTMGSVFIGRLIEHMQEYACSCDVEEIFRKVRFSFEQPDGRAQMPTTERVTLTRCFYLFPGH
Test: Assay for IL-1β converting enzyme
Format: biochemical
Details: human ICE solution, substrate Ac-Tyr-Val-Ala-Asp-MCA, 37° C., fluorescence
Description: (1) Assay for IL-1β converting enzyme
The reaction mixture contains, for example, 20 mM of HEPES-NaOH pH7.4, 10 mM of KOH, 1.5 mM of MgCl2, 0.1 mM of EDTA and 10% glycerol. Various concentrations of test compounds (50 μl), human ICE solution (50 μl) and various concentrations of substrate (Ac-Tyr-VaI-Ala-Asp-MCA) were mixed and incubated at 37° C. Fluorescence intensity was measured at […].
In the aboved example method,
HEPES is 4-(2-Hydroxyethyl)-1-piperazineethane-sulfonic acid,
EDTA is Ethylenediamine tetraacetate, and
Ac-Tyr-Val-Ala-Asp-MCA is Acetyl-L-tyrosyl-L-valyl-L-alanyl-L-asparaginic acid 4-methyl-coumarinyl-7-amide.

- IC50: 30 nM
Compound: CC(C)[C@H](NC(=O)CCc1ccccc1)C(=O)N[C@@H](C)C(=O)NC(CC(=O)O)C(=O)Cn1nnc(-c2c(Cl)cccc2Cl)n1 (stereo partly drawn) [Example 2(1), N-((N-(3-phenylpropionyl)-L-valyl)-L-alanyl)-3-amino-4-oxo-5-(5-(2,6-dichlorophenyl)tetrazol-2-yl)pentanoic acid]

From US5710153A, “Tetrazole compound” (Ono Phramaceutical Co., Ltd., priority 1995, dated 1998)
